Like-named read-outs stand apart in the source and are kept apart here.
Tests used:
Assay type in all cases: cell-based
Septoria tritici = test: Activity against leaf blotch on wheat caused by Septoria tritici (microtiterplate test)
Botrytis cinerea = test: Activity against the grey mold Botrytis cinerea in the microtiterplate test
Pyricularia oryzae = test: microbe, parasite or virus in culture; settings: for Observed efficacy: single active, MTP, 405 nm, 7 days after inoculation
[1] = Zymoseptoria tritici, 168 h, single active, MTP, 405 nm, 7 days after inoculation, read-out: Observed efficacy
[2] = single active, 0.063 ppm, MTP, 405 nm, 7 days after inoculation
[3] = Botrytis cinerea, 168 h, single active, 4 ppm, MTP, 405 nm, 7 days after inoculation, read-out: Observed efficacy
[4] = Pyricularia oryzae, 168 h, read-out: Observed efficacy
[5] = Botrytis cinerea, 168 h, single active, 1 ppm, MTP, 405 nm, 7 days after inoculation, read-out: Observed efficacy
[6] = Botrytis cinerea, 168 h, single active, MTP, 405 nm, 7 days after inoculation, read-out: Observed efficacy
[7] = Zymoseptoria tritici, 168 h, single active, 0.016 ppm, MTP, 405 nm, 7 days after inoculation, read-out: Observed efficacy
[8] = Zymoseptoria tritici, 168 h, single active, 0.063 ppm, MTP, 405 nm, 7 days after inoculation, read-out: Observed efficacy
[9] = Zymoseptoria tritici, 168 h, single active, 0.25 ppm, MTP, 405 nm, 7 days after inoculation, read-out: Observed efficacy

SMILES: O=C(Nc1ccccc1-c1ccc(Cl)cc1)c1cccnc1Cl [Boscalid, boscalid, reference compound]
- inhibition of growth at 1 ppm (Septoria tritici; [1]): 54%

SMILES: Cc1ccc(NC(=O)c2snnc2C)cc1Cl [Tiadinil, tiadinil, reference compound]
- inhibition of growth at 4 ppm (Septoria tritici; Zymoseptoria tritici, 168 h, single active, 4 ppm, MTP, 405 nm, 7 days after inoculation, read-out: Observed efficacy): 24%

SMILES: N#Cc1ccccc1NC(=O)c1snc(Cl)c1Cl [Isotianil, isotianil, reference compound]
- Observed efficacy (Botrytis cinerea; single active, 4 ppm, MTP, 405 nm, 7 days after inoculation): 6%
- Observed efficacy (Pyricularia oryzae; 4 ppm): 6%

SMILES: Cn1cc(C(=O)Nc2ccccc2-c2cc(F)c(F)c(F)c2)c(C(F)F)n1 [Fluxapyroxad, fluxapyroxad, reference compound]
- Observed efficacy (Septoria tritici; [2]): 37%

SMILES: Cc1cccc2sc3nncn3c12 [Tricyclazol, tricyclazole, reference compound]
- inhibition of growth at 4 ppm (Botrytis cinerea; [3]): 14%
- inhibition of growth at 4 ppm (Pyricularia oryzae; [4]): 14%
- inhibition of growth at 1 ppm (Septoria tritici; [1]): 14%

SMILES: Cc1cc(C2=N[C@@H](C)C(C)(C)Oc3ccccc32)cnc1C(F)F [Compound 1-4]
- inhibition of growth at 1 ppm (Botrytis cinerea; [5]): 17%
- inhibition of growth at 1 ppm (Pyricularia oryzae; [4]): 17%

SMILES: CNC(=O)/C(=N/OC)c1ccccc1COc1cc(C)ccc1C [Dimoxystrobin, dimoxystrobin, reference compound]
- Observed efficacy (Botrytis cinerea; single active, 1 ppm, MTP, 405 nm, 7 days after inoculation): 16%
- Observed efficacy (Pyricularia oryzae; 1 ppm): 16%

SMILES: CC(C)OC(=O)C(C(=O)OC(C)C)=C1SCCS1 [Isoprothiolan, isoprothiolane, reference compound]
- inhibition of growth at 4 ppm (Botrytis cinerea; Botrytis cinerea, 168 h, read-out: Observed efficacy): 8%
- inhibition of growth at 4 ppm (Pyricularia oryzae; [4]): 8%

SMILES: Cc1cc(C2=N[C@@H](C)[C@H](C)Oc3ccccc32)cnc1C(F)F [Compound 1-1]
- inhibition of growth at 0.25 ppm (Botrytis cinerea; [6]): 7%
- inhibition of growth at 0.25 ppm (Pyricularia oryzae; [4]): 7%
- inhibition of growth at 0.016 ppm (Septoria tritici; [7]): 0%
- inhibition of growth at 0.063 ppm (Septoria tritici; [8]): 0%
- inhibition of growth at 0.25 ppm (Septoria tritici; [9]): 26%

SMILES: CC(C)NC(=O)N1CC(=O)N(c2cc(Cl)cc(Cl)c2)C1=O [Iprodion, iprodione, reference compound]
- inhibition of growth at 1 ppm (Botrytis cinerea; [5]): 60%
- inhibition of growth at 1 ppm (Pyricularia oryzae; [4]): 60%

SMILES: CO/C=C(/C(=O)OC)c1ccccc1Oc1cc(Oc2ccccc2C#N)ncn1 [Azoxystrobin, azoxystrobin, reference compound]
- Observed efficacy (Septoria tritici; single active, 0.016 ppm, MTP, 405 nm, 7 days after inoculation): 0%

SMILES: OC(Cc1ccccc1Cl)(Cn1nc[nH]c1=S)C1(Cl)CC1 (stereo not drawn) [Prothioconazol, prothioconazole, reference compound]
- inhibition of growth at 4 ppm (Botrytis cinerea; [3]): 35%
- inhibition of growth at 4 ppm (Pyricularia oryzae; [4]): 35%
- inhibition of growth at 0.25 ppm (Septoria tritici; [9]): 42%

SMILES: N#Cc1c[nH]cc1-c1cccc2c1OC(F)(F)O2 [Fludioxonil, fludioxonil, reference compound]
- inhibition of growth at 0.25 ppm (Septoria tritici; Zymoseptoria tritici, 168 h, read-out: Observed efficacy): 26%

SMILES: CC(O)(Cn1cncn1)c1ccc(Oc2ccc(Cl)cc2)cc1C(F)(F)F (stereo not drawn) [Mefentrifluconazol, mefentrifluconazole, reference compound]
- Observed efficacy (Botrytis cinerea; [2]): 49%
- Observed efficacy (Pyricularia oryzae; 0.063 ppm): 49%

SMILES: Cc1cc(C2=N[C@@H](C)C(C)(C)Oc3c(F)cccc32)cnc1C(F)F [Compound 1-2]
- inhibition of growth at 0.063 ppm (Botrytis cinerea; Botrytis cinerea, 168 h, single active, 0.063 ppm, MTP, 405 nm, 7 days after inoculation, read-out: Observed efficacy): 11%
- inhibition of growth at 0.25 ppm (Botrytis cinerea; [6]): 11%
- inhibition of growth at 1 ppm (Botrytis cinerea; [5]): 35%
- inhibition of growth at 0.063 ppm (Pyricularia oryzae; [4]): 11%
- inhibition of growth at 0.25 ppm (Pyricularia oryzae; [4]): 11%
- inhibition of growth at 1 ppm (Pyricularia oryzae; [4]): 35%
- inhibition of growth at 0.016 ppm (Septoria tritici; [7]): 0%
- inhibition of growth at 0.063 ppm (Septoria tritici; [8]): 0%
- inhibition of growth at 0.25 ppm (Septoria tritici; [9]): 13%

SMILES: Cc1cc(C2=N[C@H](C)C(C)(C)Oc3ccccc32)cnc1C(F)F [Compound 1-5]
- inhibition of growth at 0.016 ppm (Septoria tritici; [7]): 0%
- inhibition of growth at 0.063 ppm (Septoria tritici; [8]): 3%
- inhibition of growth at 0.25 ppm (Septoria tritici; [9]): 1%

SMILES: COC(=O)NC(=S)Nc1ccccc1NC(=S)NC(=O)OC [Thiophanate methyl, thiophanate-methyl, reference compound]
- inhibition of growth at 1 ppm (Botrytis cinerea; [5]): 9%
- inhibition of growth at 1 ppm (Pyricularia oryzae; [4]): 9%
- inhibition of growth at 1 ppm (Septoria tritici; [1]): 10%

SMILES: CC1COC(Cn2cncn2)(c2ccc(Oc3ccc(Cl)cc3)cc2Cl)O1 (stereo not drawn) [Difenoconazol, difenoconazole, reference compound]
- inhibition of growth at 0.25 ppm (Botrytis cinerea; [6]): 26%
- inhibition of growth at 0.25 ppm (Pyricularia oryzae; [4]): 26%

SMILES: Cc1cc(C2=NC3(CC3)COc3c(F)cccc32)cnc1C(F)F [Compound 1-6]
- inhibition of growth at 0.25 ppm (Botrytis cinerea; [6]): 5%
- inhibition of growth at 1 ppm (Botrytis cinerea; [5]): 14%
- inhibition of growth at 0.25 ppm (Pyricularia oryzae; [4]): 5%
- inhibition of growth at 1 ppm (Pyricularia oryzae; [4]): 14%
- inhibition of growth at 0.25 ppm (Septoria tritici; [9]): 0%
- inhibition of growth at 1 ppm (Septoria tritici; [1]): 3%

SMILES: Cc1cc(C2=NCC(C)(C)Oc3c(F)cccc32)cnc1C(F)F [Compound 1-7]
- inhibition of growth at 0.25 ppm (Botrytis cinerea; [6]): 0%
- inhibition of growth at 0.25 ppm (Pyricularia oryzae; [4]): 0%
- inhibition of growth at 0.016 ppm (Septoria tritici; [7]): 12%

SMILES: Cc1cc(C2=NC(C)C(C)(C)Oc3c(F)cccc32)cnc1C(F)F (stereo not drawn) [Compound 1-3]
- inhibition of growth at 1 ppm (Botrytis cinerea; [5]): 9%
- inhibition of growth at 1 ppm (Pyricularia oryzae; [4]): 19%

SMILES: Cc1cc(OC(C)C)ccc1C(=O)C(C)(C)NC(=O)c1sccc1C [Isofetamid, isofetamid, reference compound]
- Observed efficacy (Septoria tritici; single active, 0.25 ppm, MTP, 405 nm, 7 days after inoculation): 46%

Reference: patent US20260174083A1, “FUNGICIDAL MIXTURE COMPRISING SUBSTITUTED PYRIDINES” (BASF SE, priority 2022, published 2026)
